Patent US11752132B2, “Materials and methods for improving gastrointestinal function” (University of Florida Research Foundation, Incorporated, priority 2010, dated 2023)
Where “and” joins values, the source holds several entries; their conditions need not be identical. Identical values can stand only once.

Tests used:
[1] = tested on: mice with injury to small intestine mucosa; assay: Oral administration of candidate nutrients in radiation, chemotherapy and Crohn's disease models; conditions: for survival: oral feeding of an irradiated subject; for effect of oral administration on small intestine healing, paracellular conductance, electrolyte absorption, survival: radiation, chemotherapy and Crohn's disease models, each amino acid
Protocol: In a Crohn's disease model, mice are injected with anti-CD3 mAb (acute inflammatory model to mimic conditions of Crohn's disease).
The alterations of absorptive capacity of nutrients are determined using disease models with injury to small intestine mucosa, i.e., the radiation model, chemotherapy model, and the Crohn's disease model. Specifically, a candidate nutrient is orally administered to control mice and mice that received irradiation, chemotherapy, and anti-CD3 mAb, respectively. In addition, compositions containing various combinations of the candidate nutrients are orally administered.
To determine the absorptive capacity of each nutrient, bioelectric measurements are performed using an Ussing chamber. The measurements include: a) the sodium coupled-amino acid current (ISC) and changes in conductance, b) changes in saturation kinetics of each nutrient and changes in the ISC following the administration of each nutrient; and c) the electrolyte absorption studies using isotope flux studies in the presence and absence of the specific candidate nutrient.

[2] = tested on: jejunum (HCO3^− secretion); assay: pH stat measurement of HCO3^− secretion in stripped jejunal sheets; type: cell-based, mice
Protocol: A Bi-burette TIM 856 (Radiometer Analytical SAS, Villeurbanne, France) was used to measure HCO3^− secretion in stripped jejunal sheets (Vidyasagar et al. 2005; Vidyasagar et al. 2004; Zhang et al. 2007). Automated pumps maintained a constant pH for luminal solution through the addition of 0.01 μl of 0.025 M sulfuric acid (H2SO4). Standard-to-stat pH calibration was established by adding a known quantity of H2SO4 to a weak buffering solution, which contains an increasing concentration of HCO3^− to produce a linear titration curve.
Jejunal tissues were exposed to a buffered solution on the bath side (serosal side), while the luminal side was exposed to an HCO3^− free, low-buffered solution (0.1-mM HEPES (4-(2-hydroxyethyl)-1-piperazineethanesulfonic acid) buffer, pH 7.4). The HCO3^− secretion was equivalent to the amount of acid added to the luminal solution to maintain the pH at 7.4 (or the stat pH). All experiments were performed under voltage-clamp conditions. HCO3^−-free solution was gassed with 100% O2 and HCO3^−-containing solution was gassed with 95% O2 and 5% CO2. The HCO3^− secretion was expressed as μeq h^−1·cm^−2 (Vidyasagar et al. 2005; Vidyasagar et al. 2004; Zhang et al. 2007).
After the tissue was mounted, HCO3^− secretions were initially present in the absence of bath HCO3^−, but rapidly fell towards 0 within 20-30 minutes. If bath HCO3^− was not present during the titration, the HCO3^− secretion remained close to 0. […] When inhibitors were added to the mucosal solution, the pH was adjusted and allowed to equilibrate for 30 minutes, until a steady rate of HCO3^− secretion was observed. When the inhibitor was added to the bath side, the tissue was also equilibrated for 30 minutes to achieve a steady rate of HCO3^− secretion (see Table 3).
All experiments were performed during the initial 1-hour steady-state period. 1 tissue from each animal was used for each experiment; only 1 experimental condition was studied with each tissue sample. All experiments were repeated for at least 4 times.

[3] = tested on: jejunal mucosa (net anion secretion); assay: Ussing chamber transepithelial short circuit current (Isc) with transport blockers/forskolin; type: cell-based, mice
Source text: To study active HCO3^− secretion, 8-week-old, non-irradiated and irradiated, male BALB/c mice were obtained from the National Cancer Institute. Mice were randomly divided into groups, and abdomens were irradiated according to the gastrointestinal acute radiation syndrome (GI ARS) model with a Shepherd Mark-I, using a ^137Cs source delivering γ-irradiation at 1.84 Gy/min. Radiation was given as a single fraction. The GI ARS model will achieve maximum radiation damage to intestinal tissues, and mimics intestinal injury during radiation therapy of pelvic or abdominal tumors.
Changes in short circuit current (Isc), both as a function of time following radiation and with increasing doses of radiation, were examined to determine the earliest time and the minimum radiation dose required to produce significant changes in Isc. These studies were approved by the University of Rochester Animal Care and Use Committee.
(§1) Following exsanguinations, jejunal segment was obtained by excluding the distal 12 cm of small intestine adjacent to the caecum. This segment was washed and flushed in ice-cold Ringer's solution before the mucosa was stripped from the underlying muscular layers (Zhang, Ameen et al. 2007). The mucosa was mounted between the 2 halves of an Ussing-type Lucite chamber with an area of 0.30 cm^2 (P2304, Physiologic instruments, San Diego, Calif. 92128 USA), and electrical parameters were recorded using a voltage/current clamp device (VCC MC-8, Physiologic instruments, San Diego, Calif. 92128 USA) (Vidyasagar et al. 2005; Vidyasagar et al. 2004; Zhang et al. 2007; Vidyasagar and Ramakrishna 2002).
To determine the contribution of NKCC1 to basal Isc, 100 μM bumetanide (Sigma-Aldrich Co., USA) was added to the bath solution.
To determine whether the bumetanide-insensitive portion of Isc occurs via an apical membrane anion channel, a non-specific anion channel blocker, 5-nitro-2-(3-phenylpropylamino)-benzoic acid (Sigma-Aldrich Co., USA) (10 μM NPPB), and a specific cystic fibrosis transmembrane conductance regulator (CFTR) blocker (100 μM glibenclamide, Sigma-Aldrich Co., USA) were applied.

[4] = tested on: small intestine mucosa; assay: Ussing chamber isotope flux studies, unidirectional and net flux of Na^+ and Cl^−; type: in vitro ADME, mice; design: key to Na Flux Jms / Na Flux Jsm / Na Flux Jnet: fluxes in μmol·h^−1·cm^−2
Protocol: as §1
Irradiation decreases Jms in a dose-dependent manner, and results in decreased net Na^+ absorption (JNetNa). Jsm far exceeds Jms at doses 7 and 9 Gy, causing net secretion. In addition, mice stool samples became loose or poorly formed at high dose irradiation, further evidencing decreased absorption and increased secretion of electrolytes. […] Decrease in Cl^− absorption was due to decrease in JmsCl^−.
In this Example, isotope (^22Na and ^36Cl) substitution studies are performed to determine the basal Na^+ and Cl^− movement. Briefly, ^22Na and ^36Cl are added either to the mucosal or to the serosal side. 0.5 ml samples are collected from the cold side at the end of every 30 minutes. Unidirectional fluxes are calculated using standard formula, and expressed as μmol·h^−1·cm^−2. Net flux (JNet) is calculated as the difference between Jms and Jsm fluxes across tissue pairs. Experiments are performed under short-circuit conditions.

Compound: NC(=O)C[C@H](N)C(=O)O [asparagine]
- survival [1]: prolongs survival
- effect of oral administration on small intestine healing, paracellular conductance, electrolyte absorption, survival [1]: improve small intestine healing, reduces paracellular conductance (thereby improving small intestine mucosal barrier mechanism), increases absorption of electrolytes, and/or improves survival in animals

Compound: O=C(O)c1cc([N+](=O)[O-])ccc1NCCCc1ccccc1 [NPPB, 5-nitro-2-(3-phenylpropylamino)-benzoic acid]
- forskolin-stimulated HCO3^− secretion after blocker ([2]; 0 Gy + forskolin, blocker on luminal side (100 μM glibenclamide; NPPB)): 0.2±0.01 μeq·h^−1·cm^−2
- HCO3^− secretion ([2]; 3 Gy, blocker in lumen solution / mucosal addition (100 μM DIDS or glibenclamide; NPPB)): 0.2±0.01 μeq·h^−1·cm^−2
- bumetanide-insensitive Isc after mucosal addition of blocker ([3]; 0-Gy mice, 10 μM NPPB, 100 μM glibenclamide): 0.1±0.01 μeq·h^−1·cm^−2

Compound: CS(=O)(=O)c1cc(C(=O)NC(=N)N)ccc1N1CCCCC1.Cl [HOE694, 3-methylsulphonyl-4-piperidinobenzoyl, guanidine hydrochloride]
- cAMP-stimulated HCO3^− secretion after HOE694 ([2]; 1 mM HOE694 on bath side, 8.4±0.4 without): 7.2±0.9 μeq·h^−1·cm^−2

Compound: NCC(=O)O [glycine]
- survival [1]: prolongs survival
- effect of oral administration on small intestine healing, paracellular conductance, electrolyte absorption, survival [1]: improve small intestine healing, reduces paracellular conductance (thereby improving small intestine mucosal barrier mechanism), increases absorption of electrolytes, and/or improves survival in animals

Compound: Cl [Cl^−]
- Cl Flux Jms ([4]; IR 0 Gy): 17.3 ± 1.1
- Cl Flux Jnet ([4]; IR 0 Gy): 10.2 ± 0.8
- Cl Flux Jsm ([4]; IR 0 Gy): 7.1 ± 0.6
- Cl Flux Jms ([4]; IR 1 Gy): 12.8 ± 0.9
- Cl Flux Jnet ([4]; IR 1 Gy): 5.2 ± 0.9
- Cl Flux Jsm ([4]; IR 1 Gy): 7.6 ± 1.3
- Cl Flux Jms ([4]; IR 3 Gy): 16.8 ± 0.7
- Cl Flux Jnet ([4]; IR 3 Gy): 7.5 ± 0.8
- Cl Flux Jsm ([4]; IR 3 Gy): 9.3 ± 0.8
- Cl Flux Jms ([4]; IR 5 Gy): 14.2 ± 1.2
- Cl Flux Jnet ([4]; IR 5 Gy): 3.9 ± 0.7
- Cl Flux Jsm ([4]; IR 5 Gy): 10.3 ± 0.9
- Cl Flux Jms ([4]; IR 7 Gy): 7.1 ± 0.5
- Cl Flux Jnet ([4]; IR 7 Gy): 0.3 ± 0.2
- Cl Flux Jsm ([4]; IR 7 Gy): 6.9 ± 0.3
- Cl Flux Jms ([4]; IR 9 Gy): −9.2 ± 0.8
- Cl Flux Jnet ([4]; IR 9 Gy): −9.3 ± 0.9
- Cl Flux Jsm ([4]; IR 9 Gy): 0.1 ± 0.1

Compound: CC[C@H](C)[C@H](N)C(=O)O [isoleucine]
- survival [1]: prolongs survival
- effect of oral administration on small intestine healing, paracellular conductance, electrolyte absorption, survival [1]: improve small intestine healing, reduces paracellular conductance (thereby improving small intestine mucosal barrier mechanism), increases absorption of electrolytes, and/or improves survival in animals

Compound: C=C[C@@]1(C)CC(=O)[C@]2(O)[C@@]3(C)[C@@H](O)CCC(C)(C)[C@@H]3[C@H](O)[C@H](OC(C)=O)[C@@]2(C)O1 [forskolin]
- HCO3^− secretion ([2]; 0 Gy + forskolin, Cl^− containing lumen solution): 8.4±0.4 μeq·h^−1·cm^−2
- HCO3^− secretion ([2]; 0 Gy + forskolin, Cl^−-free lumen solution): 8.7±0.4 μeq·h^−1·cm^−2 and 8.7 ± 0.4^ μeq·h^−1·cm^−2
- HCO3^− secretion ([2]; 3 Gy + forskolin, Cl^− containing lumen solution): 0.6 ± 0.2 μeq·h^−1·cm^−2
- HCO3^− secretion ([2]; 3 Gy + forskolin, Cl^− containing lumen solution, listed as Forskolin): 0.6±0.2 μeq·h^−1·cm^−2
- HCO3^− secretion ([2]; 3 Gy + forskolin, Cl^−-free lumen solution): 0.9 ± 0.2^ μeq·h^−1·cm^−2
- forskolin-stimulated HCO3^− secretion ([2]; non-irradiated mice, bath Na^+ replaced with NMDG): 0.3±0.01 μeq·h^−1·cm^−2
- forskolin-stimulated Isc ([3]; 0 Gy): 6.9±0.6 μeq·h^−1·cm^−2
- forskolin-stimulated Isc in Cl^−-free solution ([3]; 0 Gy): 1.7±0.2 μeq·h^−1·cm^−2
- forskolin-stimulated Isc in Cl^−-free solution ([3]; 3-Gy irradiated mice): 0.3±0.1 μeq·h^−1·cm^−2
- forskolin-stimulated Isc ([3]; 3 Gy): 7.3±0.5 μeq·h^−1·cm^−2

Compound: C[C@@H](O)[C@H](N)C(=O)O [threonine]
- survival [1]: prolongs survival
- effect of oral administration on small intestine healing, paracellular conductance, electrolyte absorption, survival [1]: improve small intestine healing, reduces paracellular conductance (thereby improving small intestine mucosal barrier mechanism), increases absorption of electrolytes, and/or improves survival in animals

Compound: N[C@@H](Cc1c[nH]c2ccccc12)C(=O)O [tryptophan]
- survival [1]: prolongs survival
- effect of oral administration on small intestine healing, paracellular conductance, electrolyte absorption, survival [1]: improve small intestine healing, reduces paracellular conductance (thereby improving small intestine mucosal barrier mechanism), increases absorption of electrolytes, and/or improves survival in animals

Compound: N[C@@H](Cc1ccc(O)cc1)C(=O)O [tyrosine]
- survival [1]: prolongs survival
- effect of oral administration on small intestine healing, paracellular conductance, electrolyte absorption, survival [1]: improve small intestine healing, reduces paracellular conductance (thereby improving small intestine mucosal barrier mechanism), increases absorption of electrolytes, and/or improves survival in animals

Compound: N[C@@H](CC(=O)O)C(=O)O [aspartic acid]
- survival [1]: prolongs survival
- effect of oral administration on small intestine healing, paracellular conductance, electrolyte absorption, survival [1]: improve small intestine healing, reduces paracellular conductance (thereby improving small intestine mucosal barrier mechanism), increases absorption of electrolytes, and/or improves survival in animals

Compound: CC(C)[C@H](N)C(=O)O [valine]
- survival [1]: prolongs survival
- effect of oral administration on small intestine healing, paracellular conductance, electrolyte absorption, survival [1]: improve small intestine healing, reduces paracellular conductance (thereby improving small intestine mucosal barrier mechanism), increases absorption of electrolytes, and/or improves survival in animals

Compound: [Na+] [Na^+]
- Na Flux Jms ([4]; IR 0 Gy): 16.4 ± 0.9
- Na Flux Jnet ([4]; IR 0 Gy): 9.8 ± 0.8
- Na Flux Jsm ([4]; IR 0 Gy): 7.1 ± 0.8
- Na Flux Jms ([4]; IR 1 Gy): 15.6 ± 1
- Na Flux Jnet ([4]; IR 1 Gy): 8.6 ± 0.9
- Na Flux Jsm ([4]; IR 1 Gy): 7.1 ± 1.1
- Na Flux Jms ([4]; IR 3 Gy): 6.8 ± 0.7
- Na Flux Jnet ([4]; IR 3 Gy): 2.6 ± 0.5
- Na Flux Jsm ([4]; IR 3 Gy): 3.5 ± 0.3
- Na Flux Jms ([4]; IR 5 Gy): 5.2 ± 0.6
- Na Flux Jnet ([4]; IR 5 Gy): 0.4 ± 0.2
- Na Flux Jsm ([4]; IR 5 Gy): 4.8 ± 0.4
- Na Flux Jms ([4]; IR 7 Gy): 4.8 ± 0.4
- Na Flux Jnet ([4]; IR 7 Gy): −0.6 ± 0.3
- Na Flux Jsm ([4]; IR 7 Gy): 5.4 ± 0.4
- Na Flux Jms ([4]; IR 9 Gy): 4.3 ± 0.7
- Na Flux Jnet ([4]; IR 9 Gy): −0.4 ± 0.2
- Na Flux Jsm ([4]; IR 9 Gy): 4.7 ± 0.6

Compound: N[C@@H](CO)C(=O)O [serine]
- survival [1]: prolongs survival
- effect of oral administration on small intestine healing, paracellular conductance, electrolyte absorption, survival [1]: improve small intestine healing, reduces paracellular conductance (thereby improving small intestine mucosal barrier mechanism), increases absorption of electrolytes, and/or improves survival in animals
